According to US12005125B2, “Nanoparticles for use in photodynamic therapies and methods of making, evaluating and using the same” (Mi2 Holdings LLC, priority 2020, dated 2024):

Key:
[1] = ADMA fluorescent probe test: rate of total Type 1 and 2 ROS production by an illuminated photosensitizer (k-value); assay type: physicochemical; details: for k (rate constant of Type 1 and 2 ROS production, slope of Ln(I/I0) of ADMA vs time): free PS illuminated at the wavelength of its maxima, [PS] E-6 (clinically relevant 1-2 uM); for k′ (k/kstd): relative to methylene blue (MB) as standard; for k″ (1−k′): x coordinate of PS grid, MB = origin
From the text: (§1) Discussed below are evaluations methods and system for evaluating a PS for Type ½ Production. The above describes the parameters that would best define an ideal practical PS. […] This can be semi-quantitatively analyzed using fluorescent molecular probes that scavenge Type ½ ROS. Two specific probes ideal for this are 9,10-anthracene bis(methylene) dimalonic acid (ADMA) and singlet oxygen sensor green (SOSG).
(§2) Anthracene and its derivatives are sensitive to both Type 1 and Type 2 ROS, while SOSG is specifically for Type 2 ROS studies.^9 By tracking the fluorescent changes of these probes over time, the Type ½ ROS and rates of production by a set of PSs can be directly compared in a semi-quantitative manner. In the work to follow, AMDA is the anthracene derivative utilized.
ADMA decays according to first order rate law kinetics. As such, the rate of total Type 1 and 2 ROS may be studied by tracking its fluorescence loss over time as a natural log, yielding a linear plot whose slope is the rate constant of Type 1 and 2 ROS production (referred to as the k-value). The greater the rate constant, the more Type 1 and Type 2 ROS being produced, and thus PSs compared under identical conditions (equivalent [PS], [02], flux, temp) can be semi-quantitatively compared.
(§3) Combining the findings of the SOSG and ADMA tests, semi-quantitative comparisons and estimates about the performance of PSs in a given set may be extrapolated, when performed under identical conditions (equivalent [PS], [O2], flux, temp). This will aid in choosing a PS that maximizes PDT efficacy by showing it has a minimum of Type 1 ROS and maximum of Type 2 ROS production, while also producing at a sufficient rate to efficiently ablate tissue.
(§4) The exact method of study is as follows, using a factory default Horiba Duetta:
(§5) 3. Pulse the molecular probe for initial fluorescence
(§6) • a. Simple fluorescence scan • b. […] Ex/Em slits for both=⅔ nm, Integration for 1 second, 5 scans • e. The peak of highest counts is used 2. The PS is illuminated using the wavelength of its maxima for a set amount of time • a. Fixed wavelength fluorescent study mode; choose a time point desired • b. Ex/Em bandwidth=10/1 nm 4. Pulse the molecular probe for fluorescent changes 5. Repeat Steps 2 and 3 until the range time values desired is covered 6. Treat the data • a. Anthracene=Ln(I/I0) vs time; slope=k-value • b. SOSG=I/I0 vs time; slope=S-value
(§7) Using a PS as an assigned origin (standard by which all other PSs are compared to), any PS may be charted by comparing the k and S-values (k/kstd=k′, S/Sstd=S′, k″=1−k′, S″=S′−1) at clinically relevant concentrations (1-2 uM). By plotting the k″ and S″ values as x,y coordinates (respectively), the semi-quantitative comparison of PSs against each other may be directly visualized; the origin PS will have a position of 0,0. The x-axis will then stretch from −∞ to 1, and y-axis from −1 to ∞.

[2] = SOSG (singlet oxygen sensor green) fluorescent probe test: Type 2 ROS production by an illuminated photosensitizer (S-value); assay type: physicochemical; details: for S (slope of SOSG I/I0 vs time, Type 2 ROS production): free PS illuminated at the wavelength of its maxima, [PS] E-6 (clinically relevant 1-2 uM); for S′ (S/Sstd): relative to methylene blue (MB) as standard; for S″ (S′−1): y coordinate of PS grid, MB = origin
From the text: as §1, §2
SOSG functions in a manner opposite to that of the anthracene probe; instead of a fluorescence loss, SOSG experiences a fluorescence enhancement when interacting with Type 2 ROS; Type 1 ROS has no effect. […] Therefore, the steeper the slope (S-value), the more Type 2 ROS being produced.
as §3, §4, §5, §6, §7

[3] = when covalently conjugated to 8PEGA; cited from earlier work
[4] = cited from earlier work

Row | Compound | k (rate constant of Type 1 and 2 ROS production, slope of Ln(I/I0) of ADMA vs time) [1] | k′ (k/kstd) [1] | k″ (1−k′) [1] | S (slope of SOSG I/I0 vs time, Type 2 ROS production) [2] | S′ (S/Sstd) [2] | S″ (S′−1) [2] | k-values [3] | solubility in aqueous media ([4]; when covalently conjugated to 8PEGA) | k-vlaue (E-4) ([1]; [PS] 3.99E−06) | SOSG (E-2) ([2]; [PS] 3.91E−06) | solubility in water [4]
1 | CN(C)c1ccc2nc3ccc(=[N+](C)C)cc-3sc2c1 [MB, Methylene blue] | 6.13 E-4 s^−1 | 1 | 0.00 | 0.46 E−2 s^−1 | 1 | 0.00 | – | – | – | – | –
2 | CCNc1cc2[s+]c3cc(NCC)c(C)cc3nc2cc1C.[Cl-] [NMB, New Methylene Blue] | 12.1 E-4 s^−1 | 1.97 | −0.97 | 0.96 E−2 s^−1 | 2.09 | 1.09 | – | – | – | – | –
3 | Chlorin e6 [Ce6] | 0.94 E-4 s^−1 | 0.153 | 0.85 | 0.73 E−2 s^−1 | 1.59 | 0.59 | improved | markedly enhanced | – | – | –
4 | IRDye 700DX HHS Ester [IR700] | 1.83 E-4 s^−1 | 0.299 | 0.70 | 2.04 E−2 s^−1 | 4.43 | 3.43 | – | – | 2.62 E-4 | 2.89 E-2 | water soluble, having good solubility
5 | Verteporfin | 0.16 E-4 s^−1 | 0.03 | 0.97 | 0.06 E−2 s^−1 | 0.13 | −0.87 | – | – | – | – | –
